Data published in EP2961847B1, “NITRITE-REDUCTASE (NIRB) AS POTENTIAL ANTI-TUBERCULAR TARGET AND A METHOD TO DETECT THE SEVERITY OF TUBERCULOSIS DISEASE” (priority 2013, dated 2014).
Like-named read-outs stand apart in the source and are kept apart here.

Legend:
[1] = tested on: M. tuberculosis in THP-1 macrophage; format: cell-based, Mycobacterium tuberculosis
[2] = tested on: Mycobacterium tuberculosis
THP-1 macrophages = assay: Cytotoxic effect on THP-1 macrophages, fluorescence microscopy after DAPI staining; format: cell-based, Human; details: 100 µM; images after 10th day of inhibitor treatment; compared with untreated control
Method: THP-1 macrophage cells were grown on cover slip in 8 well microplates and washed twice with chilled methanol followed by staining with 4', 6-diamidino-2-phenylindole (DAPI) at final concentration of 300 nM. Macrophage cells were kept for 15 min at room temperature under dark condition. After incubation, cells were washed three times with distilled water and analyzed under the fluorescence microscope (Leitz Wetzlar model, Germany) at 350 nm excitation and 450 nm emission wavelengths (400 X) using 'A'filter.
To investigate the host THP-1 macrophage cells condition due to its exposure to p-HMB inhibitor before considering its effective and specific inhibition of bacilli in macrophage infection models, fluorescence microscopic picture of THP-1 cells treated with p-HMB (100 µM) was compared with the untreated control after staining with DAPI(4',6-diamidino-2-phenylindole). Fluorescence images were taken after 10th day of inhibitor treatment.

SMILES	decrease in intracellular viable cell count (log difference compared to control) [1] [log]	decrease in intracellular viable cell count (log difference compared to control) ([1]; […], cell counts on 10th day PI, control without inhibitor) [log]	reduction of bacilli count ([1]; summary statement: in-vitro and ex-vivo conditions) [log cfu]	cell count reduced (log difference) [2] [log]	inhibition of bacilli grown under ammonia [2]	cytotoxic effect on macrophage (integrity of nuclear structure) (THP-1 macrophages)
[N-]=[N+]=[N-] [Azide]	~1.5					
O=C(O)c1cc[c]([Hg][OH])cc1 [p-HMB, para-hydroxy mercuric benzoate]		~2	~2	~2.5	no inhibition was observed	without exhibiting any cytotoxic effects on macrophage
CS(=N)(=O)CC[C@H](N)C(=O)O (stereo partly drawn) [L-MSO, L-methionine sulfoximine]	~2.5					
